In the first data set the target is T1, Human COX II (Homo sapiens, UniProt P35354).
T1 construct: A 2.0 kb fragment containing the coding region of either human or murine COX-I or human or murine COX-II; made in house; host or cells: SF9 insect cells (baculovirus, transfer vector pVL1393)
T1 sequence (P35354 18-604): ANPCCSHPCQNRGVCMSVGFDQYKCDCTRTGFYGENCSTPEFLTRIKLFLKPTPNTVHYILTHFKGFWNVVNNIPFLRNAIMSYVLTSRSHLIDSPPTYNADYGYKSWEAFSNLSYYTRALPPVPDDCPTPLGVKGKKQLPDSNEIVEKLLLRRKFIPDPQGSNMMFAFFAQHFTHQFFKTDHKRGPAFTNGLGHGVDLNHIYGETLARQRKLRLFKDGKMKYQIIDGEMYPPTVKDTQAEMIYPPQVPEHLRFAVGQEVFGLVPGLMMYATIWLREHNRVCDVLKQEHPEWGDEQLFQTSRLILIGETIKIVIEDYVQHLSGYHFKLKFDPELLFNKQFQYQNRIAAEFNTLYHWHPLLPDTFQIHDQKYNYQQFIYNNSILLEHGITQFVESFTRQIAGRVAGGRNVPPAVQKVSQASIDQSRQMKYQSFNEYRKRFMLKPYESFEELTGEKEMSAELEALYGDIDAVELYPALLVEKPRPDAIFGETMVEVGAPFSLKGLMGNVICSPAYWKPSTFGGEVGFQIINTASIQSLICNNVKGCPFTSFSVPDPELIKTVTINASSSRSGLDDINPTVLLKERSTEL
Briefly: Assay for COX II activity in vitro (PGE2 ELISA, recombinant enzyme). Format: biochemical. The conditions noted are these: read-out: Human COX II ID50. Background: An ELISA detects its analyte on a solid surface through an enzyme-linked reagent.
Description: The COX II inhibition activity of the compounds of this invention illustrated in the Examples was determined by the following methods.
Regarding `COc1c(Cl)cc(-c2cc(C(F)(F)F)nn2-c2ccc(S(N)(=O)=O)cc2)cc1Cl` [Example 3, 4-[5-(3,5-Dichloro-4-methoxyphenyl)-3-(trifluoromethyl)-1H-pyrazol-1-yl]benzenesulfonamide], the IC50 was below 0.1 µM.
Still for that read-out and setting: the value for `CCCc1cc(-c2cc(C(F)(F)F)nn2-c2ccc(S(N)(=O)=O)cc2)ccc1OC` [Example 7, 4-[5-(3-Propyl-4-methoxyphenyl)-3-(trifluoromethyl)-1H-pyrazol-1-yl]benzenesulfonamide] was 14 µM.
Regarding `COc1ccc(-c2cc(C(F)(F)F)nn2-c2ccc(S(N)(=O)=O)cc2)cc1CC1CC1` [Example 8, 4-[5-(3-Cyclopropylmethyl-4-methoxyphenyl)-3-(trifluoromethyl)-1H-pyrazol-1-yl]benzenesulfonamide], the IC50 was 37.7 µM.
On the same count and under the same terms, under `COC(=O)c1cc(-c2ccc(Cl)cc2)n(-c2ccc(S(N)(=O)=O)cc2)n1` [Example 85, Methyl [1-(4-aminosulfonylphenyl)-5-(4-chlorophenyl)-1H-pyrazole-3-yl]carboxylate] stands 73.6 µM.
Same read-out and setting: under `CCOC(=O)c1cc(-c2ccc(Cl)cc2)n(-c2ccc(S(N)(=O)=O)cc2)n1` [Example 86, Ethyl [1-(4-aminosulfonylphenyl)-5-(4-chlorophenyl)-1H-pyrazole-3-yl]carboxylate] stands 0.5 µM.
With `NC(=O)c1cc(-c2ccc(Cl)cc2)n(-c2ccc(S(N)(=O)=O)cc2)n1` [Example 96], the IC50 was found to be 6.5 µM.
Same read-out and setting: the value for `NS(=O)(=O)c1ccc(-n2nc(CCCO)cc2-c2ccccc2)cc1` [Example 172, 4-[5-Phenyl-3-(3-hydroxypropyl)-1H-pyrazol-1-yl]benzenesulfonamide] was 4.2 µM.
The same measure, in the same setting: the value for `NS(=O)(=O)c1ccc(-n2nc(CCCO)cc2-c2ccc(F)cc2)cc1` [Example 173, 4-[5-(4-Fluorophenyl)-3-(3-hydroxypropyl)-1H-pyrazol-1-yl]benzenesulfonamide] was 4.7 µM; that for `NS(=O)(=O)c1ccc(-n2nc(CCC(=O)O)cc2-c2ccc(F)cc2)cc1` [Example 174] was 3.5 µM; that for `CCOC(=O)C(C#N)=Cc1cc(-c2ccccc2)n(-c2ccc(S(N)(=O)=O)cc2)n1` [Example 176, Ethyl 3-[1-[4-(aminosulfonyl)phenyl]-5-phenyl-1H-pyrazol-3-yl]-2-cyano-2-propenoate] was 0.3 µM.
For `NS(=O)(=O)c1ccc(-n2nc(C(F)(F)F)c(CO)c2-c2ccccc2)cc1` [Example 204, 4-[4-hydroxymethyl-5-phenyl-3-(trifluoromethyl)-1H-pyrazol-1-yl]benzenesulfonamide], the IC50 was found to be 6.7 µM.
Turning to `CN(C)C=NS(=O)(=O)c1ccc(-n2nc(C#N)c(Cl)c2-c2ccc(F)cc2)cc1` [Example 259], the IC50 was 1.1 µM.
For `CN(C)C=NS(=O)(=O)c1ccc(-n2nc(C#N)c(Br)c2-c2ccccc2)cc1` [Example 260, 4-[4-Bromo-3-cyano-5-phenyl-1H-pyrazol-1-yl]-N-[(dimethylamino)methylene]benzenesulfonamide], the IC50 stood at 1.1 µM.

System in the next data set: not given
Experiment: not given
Conditions: not given
Broadly, the melting point is the temperature of the solid-liquid transition. Molecule `COC(=O)c1cc(-c2ccc(Cl)cc2)n(-c2ccc(S(N)(=O)=O)cc2)n1` [Example 85, Methyl [1-(4-aminosulfonylphenyl)-5-(4-chlorophenyl)-1H-pyrazole-3-yl]carboxylate] came in with a melting point of 227 °C.
Still for that read-out and setting: under `NC(=O)c1cc(-c2ccc(Cl)cc2)n(-c2ccc(S(N)(=O)=O)cc2)n1` [Example 96] stands 108 to 110 °C.
The same measure, in the same setting: the value for `NS(=O)(=O)c1ccc(-n2nc(C(F)F)cc2-c2cnccn2)cc1` [Example 137, 4-[5-(2-Pyrazinyl)-3-(difluoromethyl)-1H-pyrazol-1-yl]benzenesulfonamide] was 191 to 194 °C; that for `NS(=O)(=O)c1ccc(-n2nc(CCC(=O)O)cc2-c2ccc(F)cc2)cc1` [Example 174] was 180 to 182 °C; that for `NS(=O)(=O)c1ccc(-n2nc(C=NOCc3ccccc3)cc2-c2ccc(Cl)cc2)cc1` [Example 177, 4-[5-(4-Chlorophenyl)-3-[[(phenylmethoxy)imino]methyl]-1H-pyrazol-1-yl]benzenesulfonamide] was 158 to 159 °C.
Same read-out and setting: the value for `NS(=O)(=O)c1ccc(-n2nc(C(F)(F)F)c3c2-c2ccccc2CC3)cc1` [Example 187, 4-[4,5-Dihydro-3-(trifluoromethyl)-1H-benz[g]indazol-1-yl]benzenesulfonamide] was 257 to 258 °C.

The record behind these values is patent US6413960B1, “Substituted pyrazolyl benzenesulfonamides for the treatment of asthma” (G.D. Searle & Co., priority 1993, dated 2002).
